Data published in patent publication US10815230B2, “Casein kinase 1 delta inhibitor” (ELECTROPHORETICS LIMITED, priority 2015, dated 2020).
Where “and” joins values, the source holds several entries; their conditions need not be identical. Identical values can stand only once. Like-named read-outs stand apart in the source and are kept apart here.

Tests used:
[1] = Determination of compound in plasma and brain by LC-MS/MS; type: in vivo; conditions: TMHT mice of experiment 5.5, 30 mg/kg orally for 8 weeks; for concentration in cortex: cortex at sacrifice; for concentration in plasma: plasma at sacrifice; for concentration in rest of brain: rest of brain at sacrifice; for concentration at 8 weeks: TMHT, mouse, oral, 30 mg/kg
Method: Plasma and brain samples derived from the experiments in 5.5 were pooled from single time point and were analysed for the presence and concentration of Comparative Compound 324 and Compound A by LC-MS/MS after protein precipitation over the calibration range of 0.5-10,000 ng/mL. Chrysin (Sigma®), control mouse plasma and brain (obtained from a commercial supplier) were used as internal standards.
All instrument control, data collection, peak area integration and storage were performed using Thermo Finnigan TSQ Quantum Ultra Mass Spectrometer in conjunction with LCQuan software (v.2.5.6). The mass spectrometer response (peak area ratio of analyte to internal standard) of each calibration standard was calculated by Watson LIMS (v. 7.2) and plotted against the nominal concentration. A weighted least square quadratic regression analysis was used to calculate an equation of the calibration line using one of the standard fits in Watson LIMS. Concentration of Comparative Compound 324 and Compound A in the plasma and brain samples were back calculated from the calibration lines to 3 significant figures. All results reported are from samples that passed the following criteria:
[formula] • At least 7 calibration standards within ±20% RE of their target concentrations. • At least 66% of QC samples within ±20% RE of their respective target values. Within at least one acceptable at each level when n=3 and two when n=6.
The analytical method was as summarised below in Table 14:
In total 32 samples were analysed. Quality control (QC) samples at concentration of 10, 100 and 1000 ng/mL were freshly prepared on the day of the analysis.

[2] = target: ALK (L1196M) (Homo sapiens, UniProt Q9UM73, L1196M); assay: KINOMEscan binding assay; conditions: read-out: % Ctrl @ 10000 nM
[3] = target: ASK1 (Homo sapiens, UniProt Q99683); assay: KINOMEscan binding assay; conditions: read-out: % Ctrl @ 10000 nM
[4] = target: AURKA (Homo sapiens, UniProt O14965); assay: KINOMEscan binding assay; conditions: read-out: % Ctrl @ 10000 nM
[5] = target: CDK8 (Homo sapiens, UniProt P49336); assay: KINOMEscan binding assay; conditions: read-out: % Ctrl @ 10000 nM
[6] = target: CDK9 (Homo sapiens, UniProt P50750); assay: KINOMEscan binding assay; conditions: read-out: % Ctrl @ 10000 nM
[7] = target: CSF1R (Homo sapiens, UniProt P07333); assay: KINOMEscan binding assay; conditions: read-out: % Ctrl @ 10000 nM
[8] = target: CSNK1E (Homo sapiens, UniProt P49674); assay: KINOMEscan binding assay; conditions: read-out: % Ctrl @ 10000 nM
[9] = target: CSNK2A1 (Homo sapiens, UniProt P68400); assay: KINOMEscan binding assay; conditions: read-out: % Ctrl @ 10000 nM
[10] = target: DCAMKL2 (Homo sapiens, UniProt Q8N568); assay: KINOMEscan binding assay; conditions: read-out: % Ctrl @ 10000 nM
[11] = target: DRAK1 (Homo sapiens, UniProt Q9UEE5); assay: KINOMEscan binding assay; conditions: read-out: % Ctrl @ 10000 nM
[12] = target: DYRK1B (Homo sapiens, UniProt Q9Y463); assay: KINOMEscan binding assay; conditions: read-out: % Ctrl @ 10000 nM
[13] = target: EGFR (Homo sapiens, UniProt P00533); assay: KINOMEscan binding assay; conditions: read-out: % Ctrl @ 10000 nM
[14] = target: EPHA2 (Homo sapiens, UniProt P29317); assay: KINOMEscan binding assay; conditions: read-out: % Ctrl @ 10000 nM
[15] = target: EPHA5 (Homo sapiens, UniProt P54756); assay: KINOMEscan binding assay; conditions: read-out: % Ctrl @ 10000 nM
[16] = target: EPHA8 (Homo sapiens, UniProt P29322); assay: KINOMEscan binding assay; conditions: read-out: % Ctrl @ 10000 nM
[17] = target: EPHB1 (Homo sapiens, UniProt P54762); assay: KINOMEscan binding assay; conditions: read-out: % Ctrl @ 10000 nM
[18] = target: ERN1 (Homo sapiens, UniProt O75460); assay: KINOMEscan binding assay; conditions: read-out: % Ctrl @ 10000 nM
[19] = target: HIPK2 (Homo sapiens, UniProt Q9H2X6); assay: KINOMEscan binding assay; conditions: read-out: % Ctrl @ 10000 nM
[20] = target: HUNK (Homo sapiens, UniProt P57058); assay: KINOMEscan binding assay; conditions: read-out: % Ctrl @ 10000 nM
[21] = target: LRRK2 (Homo sapiens, UniProt Q5S007); assay: KINOMEscan binding assay; conditions: read-out: % Ctrl @ 10000 nM
[22] = target: MEK1 (Homo sapiens, UniProt Q02750); assay: KINOMEscan binding assay; conditions: read-out: % Ctrl @ 10000 nM
[23] = target: MLCK (Homo sapiens, UniProt Q32MK0); assay: KINOMEscan binding assay; conditions: read-out: % Ctrl @ 10000 nM
[24] = target: PDGFRB (Homo sapiens, UniProt P09619); assay: KINOMEscan binding assay; conditions: read-out: % Ctrl @ 10000 nM
[25] = target: PIK3CA (E545K) (Homo sapiens, UniProt P42336, E545K); assay: KINOMEscan binding assay; conditions: read-out: % Ctrl @ 10000 nM
[26] = target: PIK3CA (Q546K) (Homo sapiens, UniProt P42336, Q546K); assay: KINOMEscan binding assay; conditions: read-out: % Ctrl @ 10000 nM
[27] = target: RET (V804L) (Homo sapiens, UniProt P07949, V804L); assay: KINOMEscan binding assay; conditions: read-out: % Ctrl @ 10000 nM
[28] = target: RSK1 Kin.Dom.1-N-terminal (Homo sapiens, UniProt Q15418); assay: KINOMEscan binding assay; conditions: read-out: % Ctrl @ 10000 nM
[29] = target: RSK3 Kin.Dom.2-C-terminal (Homo sapiens, UniProt Q15349); assay: KINOMEscan binding assay; conditions: read-out: % Ctrl @ 10000 nM
[30] = target: TAOK1 (Homo sapiens, UniProt Q7L7X3); assay: KINOMEscan binding assay; conditions: read-out: % Ctrl @ 10000 nM
[31] = target: TAOK2 (Homo sapiens, UniProt Q9UL54); assay: KINOMEscan binding assay; conditions: read-out: % Ctrl @ 10000 nM
[32] = target: T1, WEE2 (Homo sapiens, UniProt P0C1S8); assay: KINOMEscan binding assay; conditions: read-out: % Ctrl @ 10000 nM
T1 construct: purchased DiscoveRx (KINOMEscan, LeadHunter Discovery services)

[33] = hippocampus at sacrifice, LC-MS/MS, one value per mouse

Sequence of RET (V804L) (P07949 29-1114 V804L): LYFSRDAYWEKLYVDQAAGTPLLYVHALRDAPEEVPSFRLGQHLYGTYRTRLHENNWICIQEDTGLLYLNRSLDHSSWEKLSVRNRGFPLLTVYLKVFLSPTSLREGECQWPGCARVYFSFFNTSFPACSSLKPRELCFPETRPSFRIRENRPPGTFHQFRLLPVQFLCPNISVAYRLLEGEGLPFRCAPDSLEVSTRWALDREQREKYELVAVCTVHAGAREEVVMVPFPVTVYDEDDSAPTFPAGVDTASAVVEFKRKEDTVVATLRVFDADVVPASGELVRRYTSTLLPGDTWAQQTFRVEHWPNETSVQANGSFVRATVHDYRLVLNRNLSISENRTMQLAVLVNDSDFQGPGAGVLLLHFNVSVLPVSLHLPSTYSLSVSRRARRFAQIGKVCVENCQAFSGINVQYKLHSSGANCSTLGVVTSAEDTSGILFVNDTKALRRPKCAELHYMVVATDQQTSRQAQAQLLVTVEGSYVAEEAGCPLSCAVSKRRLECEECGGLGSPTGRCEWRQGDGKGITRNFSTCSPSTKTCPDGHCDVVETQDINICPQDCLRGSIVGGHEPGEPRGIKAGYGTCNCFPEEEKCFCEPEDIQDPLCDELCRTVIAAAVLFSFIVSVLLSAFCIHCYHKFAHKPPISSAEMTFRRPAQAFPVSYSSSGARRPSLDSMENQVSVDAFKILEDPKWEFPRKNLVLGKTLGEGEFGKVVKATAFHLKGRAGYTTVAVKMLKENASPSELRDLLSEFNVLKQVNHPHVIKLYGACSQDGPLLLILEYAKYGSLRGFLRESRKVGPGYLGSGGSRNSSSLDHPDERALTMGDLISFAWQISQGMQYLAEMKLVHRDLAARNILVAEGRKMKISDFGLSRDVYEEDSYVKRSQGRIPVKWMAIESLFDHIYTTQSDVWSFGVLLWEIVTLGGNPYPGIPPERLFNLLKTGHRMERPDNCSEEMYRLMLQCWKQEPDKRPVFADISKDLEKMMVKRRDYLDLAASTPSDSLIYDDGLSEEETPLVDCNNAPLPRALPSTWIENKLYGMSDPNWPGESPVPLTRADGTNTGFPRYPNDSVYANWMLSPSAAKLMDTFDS
Sequence of EPHA8 (P29322 28-1005): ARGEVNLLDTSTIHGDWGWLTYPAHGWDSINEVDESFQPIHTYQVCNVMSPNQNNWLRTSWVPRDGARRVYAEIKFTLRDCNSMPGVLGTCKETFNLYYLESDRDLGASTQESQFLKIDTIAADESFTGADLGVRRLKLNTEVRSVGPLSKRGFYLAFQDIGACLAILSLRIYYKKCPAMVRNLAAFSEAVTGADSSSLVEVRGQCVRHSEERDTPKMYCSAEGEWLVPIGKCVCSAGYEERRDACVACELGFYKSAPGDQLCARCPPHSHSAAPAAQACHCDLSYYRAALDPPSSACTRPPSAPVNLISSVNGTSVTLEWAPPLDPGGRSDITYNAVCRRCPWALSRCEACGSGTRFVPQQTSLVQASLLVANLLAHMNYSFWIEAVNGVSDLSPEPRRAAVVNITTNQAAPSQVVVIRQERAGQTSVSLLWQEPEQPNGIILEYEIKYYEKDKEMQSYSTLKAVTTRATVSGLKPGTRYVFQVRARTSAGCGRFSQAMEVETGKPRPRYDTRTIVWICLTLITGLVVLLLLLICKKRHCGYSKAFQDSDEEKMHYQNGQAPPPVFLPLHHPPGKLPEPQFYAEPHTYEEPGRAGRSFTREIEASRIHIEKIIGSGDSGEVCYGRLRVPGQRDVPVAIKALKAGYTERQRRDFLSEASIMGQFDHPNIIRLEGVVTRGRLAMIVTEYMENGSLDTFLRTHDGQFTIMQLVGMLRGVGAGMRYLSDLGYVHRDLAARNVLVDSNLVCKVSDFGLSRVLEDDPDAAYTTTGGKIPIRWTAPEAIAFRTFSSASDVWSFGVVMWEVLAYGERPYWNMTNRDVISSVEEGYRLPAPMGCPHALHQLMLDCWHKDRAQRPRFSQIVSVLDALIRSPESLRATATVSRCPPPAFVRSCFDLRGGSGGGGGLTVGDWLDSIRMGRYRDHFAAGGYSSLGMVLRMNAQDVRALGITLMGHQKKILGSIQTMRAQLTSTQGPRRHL
Sequence of PIK3CA (Q546K) (P42336 whole entry Q546K): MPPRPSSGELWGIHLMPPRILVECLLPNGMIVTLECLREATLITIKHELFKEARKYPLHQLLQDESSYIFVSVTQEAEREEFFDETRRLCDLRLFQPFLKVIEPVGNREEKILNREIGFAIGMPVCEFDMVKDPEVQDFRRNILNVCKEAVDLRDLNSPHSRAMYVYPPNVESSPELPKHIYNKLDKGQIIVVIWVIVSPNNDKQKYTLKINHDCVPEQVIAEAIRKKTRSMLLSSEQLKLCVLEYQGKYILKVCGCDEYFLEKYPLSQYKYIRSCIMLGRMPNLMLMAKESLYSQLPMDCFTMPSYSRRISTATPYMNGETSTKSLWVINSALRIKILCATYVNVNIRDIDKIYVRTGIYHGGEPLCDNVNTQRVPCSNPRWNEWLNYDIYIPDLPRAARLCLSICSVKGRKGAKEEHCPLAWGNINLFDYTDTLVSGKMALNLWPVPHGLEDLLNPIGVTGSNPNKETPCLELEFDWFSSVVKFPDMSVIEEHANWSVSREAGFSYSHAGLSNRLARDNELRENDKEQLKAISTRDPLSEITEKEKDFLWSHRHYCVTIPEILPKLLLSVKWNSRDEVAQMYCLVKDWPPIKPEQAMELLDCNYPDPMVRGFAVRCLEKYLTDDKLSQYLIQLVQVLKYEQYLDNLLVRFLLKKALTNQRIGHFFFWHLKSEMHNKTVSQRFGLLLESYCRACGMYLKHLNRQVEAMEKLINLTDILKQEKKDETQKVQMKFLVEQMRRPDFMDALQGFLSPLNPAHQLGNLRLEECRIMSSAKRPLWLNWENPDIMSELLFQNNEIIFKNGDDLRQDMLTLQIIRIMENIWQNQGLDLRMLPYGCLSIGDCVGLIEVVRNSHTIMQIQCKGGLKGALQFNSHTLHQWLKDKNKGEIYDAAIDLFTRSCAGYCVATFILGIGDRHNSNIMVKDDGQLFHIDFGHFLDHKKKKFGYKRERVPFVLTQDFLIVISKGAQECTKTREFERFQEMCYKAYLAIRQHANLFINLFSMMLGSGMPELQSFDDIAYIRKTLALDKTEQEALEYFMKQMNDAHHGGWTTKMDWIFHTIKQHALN
Sequence of PIK3CA (E545K) (P42336 whole entry E545K): as the sequence (P42336 whole entry Q546K) above, with E545K, K546Q counted along it
Sequence of EPHA5 (P54756 25-1037): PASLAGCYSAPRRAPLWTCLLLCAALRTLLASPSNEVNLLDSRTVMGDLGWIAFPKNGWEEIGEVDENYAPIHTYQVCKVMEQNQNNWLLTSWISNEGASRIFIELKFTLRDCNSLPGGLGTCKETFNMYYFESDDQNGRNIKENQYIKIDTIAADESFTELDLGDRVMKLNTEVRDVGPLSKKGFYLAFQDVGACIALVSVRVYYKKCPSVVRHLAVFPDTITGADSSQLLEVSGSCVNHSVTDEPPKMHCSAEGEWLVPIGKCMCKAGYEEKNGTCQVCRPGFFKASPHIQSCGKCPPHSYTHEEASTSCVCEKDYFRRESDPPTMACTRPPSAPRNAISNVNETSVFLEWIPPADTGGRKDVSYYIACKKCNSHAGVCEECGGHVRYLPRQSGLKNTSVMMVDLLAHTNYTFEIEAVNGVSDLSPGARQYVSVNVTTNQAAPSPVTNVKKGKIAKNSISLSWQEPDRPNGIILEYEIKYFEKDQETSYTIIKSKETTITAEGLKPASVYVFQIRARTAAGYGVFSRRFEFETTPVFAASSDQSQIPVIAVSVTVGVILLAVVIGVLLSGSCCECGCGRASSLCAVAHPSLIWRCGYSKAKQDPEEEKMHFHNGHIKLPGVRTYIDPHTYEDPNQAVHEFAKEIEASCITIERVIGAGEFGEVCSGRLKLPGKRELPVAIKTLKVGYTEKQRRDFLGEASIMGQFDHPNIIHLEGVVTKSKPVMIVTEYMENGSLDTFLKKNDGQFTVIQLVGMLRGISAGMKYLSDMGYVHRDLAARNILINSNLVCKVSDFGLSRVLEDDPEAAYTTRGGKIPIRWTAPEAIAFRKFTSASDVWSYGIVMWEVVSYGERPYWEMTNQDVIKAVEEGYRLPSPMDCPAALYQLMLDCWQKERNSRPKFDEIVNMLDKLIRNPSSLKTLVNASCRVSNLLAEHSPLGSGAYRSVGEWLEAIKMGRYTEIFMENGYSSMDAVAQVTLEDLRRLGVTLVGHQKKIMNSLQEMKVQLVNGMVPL
Sequence of DYRK1B (Q9Y463 whole entry): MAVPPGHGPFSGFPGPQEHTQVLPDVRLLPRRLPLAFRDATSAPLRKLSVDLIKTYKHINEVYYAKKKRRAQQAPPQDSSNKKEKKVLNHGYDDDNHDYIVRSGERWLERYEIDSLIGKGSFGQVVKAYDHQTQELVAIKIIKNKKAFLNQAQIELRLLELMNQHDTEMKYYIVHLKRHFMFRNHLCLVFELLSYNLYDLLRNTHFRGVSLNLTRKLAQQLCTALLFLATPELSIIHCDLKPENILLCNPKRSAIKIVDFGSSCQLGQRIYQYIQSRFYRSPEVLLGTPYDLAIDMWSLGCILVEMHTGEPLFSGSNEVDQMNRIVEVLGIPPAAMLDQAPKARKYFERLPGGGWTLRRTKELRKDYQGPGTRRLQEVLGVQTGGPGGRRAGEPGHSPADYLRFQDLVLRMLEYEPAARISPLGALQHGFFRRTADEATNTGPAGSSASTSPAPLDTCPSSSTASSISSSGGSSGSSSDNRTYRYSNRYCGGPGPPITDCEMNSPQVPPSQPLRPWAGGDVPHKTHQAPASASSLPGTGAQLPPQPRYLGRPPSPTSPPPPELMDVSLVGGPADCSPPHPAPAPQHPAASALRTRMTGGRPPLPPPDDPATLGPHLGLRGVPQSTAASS
Sequence of RSK3 Kin.Dom.2-C-terminal (Q15349 415-672 limits assumed): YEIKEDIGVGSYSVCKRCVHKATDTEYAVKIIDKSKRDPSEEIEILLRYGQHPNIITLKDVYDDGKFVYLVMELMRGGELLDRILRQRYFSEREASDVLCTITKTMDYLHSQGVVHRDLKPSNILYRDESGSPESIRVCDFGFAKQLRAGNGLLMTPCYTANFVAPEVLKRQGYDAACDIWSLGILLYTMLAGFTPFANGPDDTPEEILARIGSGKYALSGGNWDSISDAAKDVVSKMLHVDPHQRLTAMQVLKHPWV

Structure (SMILES)	concentration in cortex ([1]; LC-MS/MS, one value per mouse)	concentration in hippocampus [1, 33]	concentration in plasma ([1]; LC-MS/MS, one value per mouse)	concentration in rest of brain ([1]; LC-MS/MS, one value per mouse)	remaining binding at 10 µM [2]	remaining binding at 10 µM [3]	remaining binding at 10 µM [4]	remaining binding at 10 µM [5]	remaining binding at 10 µM [6]	remaining binding at 10 µM [7]	remaining binding at 10 µM [8]	remaining binding at 10 µM [9]	remaining binding at 10 µM [10]	remaining binding at 10 µM [11]	remaining binding at 10 µM [12]	remaining binding at 10 µM [13]	remaining binding at 10 µM [14]	remaining binding at 10 µM [15]	remaining binding at 10 µM [16]	remaining binding at 10 µM [17]	other results
Nc1ncc(-c2nc3ccccc3o2)c(-c2ccncc2)n1 [Comparative Compound 324, 5-(1,3-benzoxazol-2-yl)-4-(pyridine-4-yl)pyrimidin-2-amine]	14.3 ng/mL and 108 ng/mL and 1.98 ng/mL and 10.5 ng/mL and 10.7 ng/mL and 0.536 ng/mL and 15.3 ng/mL and 6.41 ng/mL	11.9 ng/mL and 87.0 ng/mL and BLQ (2×) and 12.6 ng/mL and 11.5 ng/mL and 15.1 ng/mL and 6.12 ng/mL	295 ng/mL and 1450 ng/mL and 34.2 ng/mL and 230 ng/mL and 225 ng/mL and 10.5 ng/mL and 287 ng/mL and 138 ng/mL	16.2 ng/mL and 122 ng/mL and 9.97 ng/mL and 9.75 ng/mL and 10.8 ng/mL and 1.12 ng/mL and 16.0 ng/mL and 7.09 ng/mL	100%	96%	99%	100%	83%	74%	1.4%	56%	99%	100%	97%	100%	98%	100%	94%	86%	remaining binding at 10 µM [18]: 88%; remaining binding at 10 µM [19]: 67%; remaining binding at 10 µM [20]: 96%; remaining binding at 10 µM [21]: 83%; remaining binding at 10 µM [22]: 97%; remaining binding at 10 µM [23]: 94%; remaining binding at 10 µM [24]: 90%; remaining binding at 10 µM [25]: 82%; remaining binding at 10 µM [26]: 90%; remaining binding at 10 µM [27]: 86%; remaining binding at 10 µM [28]: 86%; remaining binding at 10 µM [29]: 100%; remaining binding at 10 µM [30]: 100%; remaining binding at 10 µM [31]: 98%; remaining binding at 10 µM [32]: 100%
CNc1c(C(N)=O)c2ccccn2c1C(=O)c1ccc(F)cc1 [Compound A, 2-methyl-amino-3-[(4-fluorophenyl)carbonyl]indolizine-1-carboxamide]	BLQ (2×) and 12.6 ng/mL and 9.67 ng/mL and 14.9 ng/mL and 8.92 ng/mL and 2.51 ng/mL and 17.7 ng/mL	BLQ (3×) and 8.23 ng/mL and 12.8 ng/mL and 9.33 ng/mL and 10.3 ng/mL	12.6 ng/mL and 207 ng/mL and 203 ng/mL and 274 ng/mL and 188 ng/mL and 16.9 ng/mL and 319 ng/mL and 25.6 ng/mL	BLQ (2×) and 12.7 ng/mL and 10.5 ng/mL and 14.1 ng/mL and 12.9 ng/mL and 19.0 ng/mL and 2.66 ng/mL	100%	87%	91%	99%	74%	87%	0.1%	53%	82%	95%	89%	49%	70%	70%	59%	69%	concentration at 8 weeks ([1]; brain, SEM 1.05, read-out: concentration in the brain (Mean ±SEM)): ~11.1 ng/mL; concentration at 8 weeks ([1]; hippocampus, hippocampus at sacrifice, LC-MS/MS, one value per mouse, read-out: concentration in hippocampus): 10.5 ng/mL; remaining binding at 10 µM [18]: 84%; remaining binding at 10 µM [19]: 74%; remaining binding at 10 µM [20]: 79%; remaining binding at 10 µM [21]: 82%; remaining binding at 10 µM [22]: 39%; remaining binding at 10 µM [23]: 53%; remaining binding at 10 µM [24]: 45%; remaining binding at 10 µM [25]: 77%; remaining binding at 10 µM [26]: 93%; remaining binding at 10 µM [27]: 67%; remaining binding at 10 µM [28]: 72%; remaining binding at 10 µM [29]: 68%; remaining binding at 10 µM [30]: 94%; remaining binding at 10 µM [31]: 80%; remaining binding at 10 µM [32]: 100%
